Data taken from ChEMBL document CHEMBL1201862, “PubChem BioAssay data set” (2004).
Active and inactive are the calls of the source.

How the values were obtained:
[1] = molecular target: Intestinal-type alkaline phosphatase (Mus musculus, UniProt P24822); test: PubChem AID 488785; assay type: functional
[2] = molecular target: T1, Heat shock factor protein 1 (Mus musculus, UniProt P38532); test: enhancement of HSF1-driven luciferase signal – cell-based, NIH3T3, luminescence, dose retest, confirmation (AID 435004); assay type: functional;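 note: stress induced by proteasome inhibitor MG132 added 30 min after compound; luciferase reporter driven by HSF1 response element in NIH3T3 cells; actives raise luminescence as potentiators of the MG132 stress response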
T1 sequence (P38532 whole entry): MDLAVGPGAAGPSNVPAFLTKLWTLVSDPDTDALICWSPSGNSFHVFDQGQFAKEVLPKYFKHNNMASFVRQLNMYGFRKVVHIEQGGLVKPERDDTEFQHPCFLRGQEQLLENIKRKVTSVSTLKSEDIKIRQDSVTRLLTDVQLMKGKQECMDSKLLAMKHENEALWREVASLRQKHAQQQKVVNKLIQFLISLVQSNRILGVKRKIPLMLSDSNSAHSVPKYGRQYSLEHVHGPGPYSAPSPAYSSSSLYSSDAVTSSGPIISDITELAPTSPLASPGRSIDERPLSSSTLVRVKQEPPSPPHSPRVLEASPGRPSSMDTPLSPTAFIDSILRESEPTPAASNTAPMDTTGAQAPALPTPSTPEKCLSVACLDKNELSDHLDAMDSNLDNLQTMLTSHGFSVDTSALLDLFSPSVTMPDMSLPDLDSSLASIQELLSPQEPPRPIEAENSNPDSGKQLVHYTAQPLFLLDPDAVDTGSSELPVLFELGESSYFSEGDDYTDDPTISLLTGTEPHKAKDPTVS

[3] = molecular target: T2, Zinc finger protein mex-5 (Caenorhabditis elegans, UniProt Q9XUB2); test: potency of MEX-5 RNA-binding blockers – biochemical, C. elegans, fluorescence polarization, dose response (AID 1960)
T2 sequence (Q9XUB2 whole entry): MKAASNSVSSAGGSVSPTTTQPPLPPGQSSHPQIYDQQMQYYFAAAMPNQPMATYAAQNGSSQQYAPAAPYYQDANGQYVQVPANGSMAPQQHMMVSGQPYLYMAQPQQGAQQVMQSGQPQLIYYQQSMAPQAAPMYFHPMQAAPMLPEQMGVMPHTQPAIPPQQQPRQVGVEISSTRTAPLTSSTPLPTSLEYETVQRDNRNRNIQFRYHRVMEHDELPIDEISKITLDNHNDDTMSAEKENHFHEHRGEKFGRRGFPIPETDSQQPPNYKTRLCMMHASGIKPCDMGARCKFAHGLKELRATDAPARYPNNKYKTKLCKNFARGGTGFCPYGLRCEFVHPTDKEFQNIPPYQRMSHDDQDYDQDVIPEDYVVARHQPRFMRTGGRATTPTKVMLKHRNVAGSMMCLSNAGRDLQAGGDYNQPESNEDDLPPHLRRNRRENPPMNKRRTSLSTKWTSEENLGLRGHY

Genome polyprotein = Genome polyprotein (dengue virus type 2, UniProt P29990); test: flavivirus cap methylation enzyme inhibition – biochemical, confirmation dose response, primary screen (AID 588689); assay type: functional
Genome polyprotein, sequence (P29990 2492-3391 limits assumed): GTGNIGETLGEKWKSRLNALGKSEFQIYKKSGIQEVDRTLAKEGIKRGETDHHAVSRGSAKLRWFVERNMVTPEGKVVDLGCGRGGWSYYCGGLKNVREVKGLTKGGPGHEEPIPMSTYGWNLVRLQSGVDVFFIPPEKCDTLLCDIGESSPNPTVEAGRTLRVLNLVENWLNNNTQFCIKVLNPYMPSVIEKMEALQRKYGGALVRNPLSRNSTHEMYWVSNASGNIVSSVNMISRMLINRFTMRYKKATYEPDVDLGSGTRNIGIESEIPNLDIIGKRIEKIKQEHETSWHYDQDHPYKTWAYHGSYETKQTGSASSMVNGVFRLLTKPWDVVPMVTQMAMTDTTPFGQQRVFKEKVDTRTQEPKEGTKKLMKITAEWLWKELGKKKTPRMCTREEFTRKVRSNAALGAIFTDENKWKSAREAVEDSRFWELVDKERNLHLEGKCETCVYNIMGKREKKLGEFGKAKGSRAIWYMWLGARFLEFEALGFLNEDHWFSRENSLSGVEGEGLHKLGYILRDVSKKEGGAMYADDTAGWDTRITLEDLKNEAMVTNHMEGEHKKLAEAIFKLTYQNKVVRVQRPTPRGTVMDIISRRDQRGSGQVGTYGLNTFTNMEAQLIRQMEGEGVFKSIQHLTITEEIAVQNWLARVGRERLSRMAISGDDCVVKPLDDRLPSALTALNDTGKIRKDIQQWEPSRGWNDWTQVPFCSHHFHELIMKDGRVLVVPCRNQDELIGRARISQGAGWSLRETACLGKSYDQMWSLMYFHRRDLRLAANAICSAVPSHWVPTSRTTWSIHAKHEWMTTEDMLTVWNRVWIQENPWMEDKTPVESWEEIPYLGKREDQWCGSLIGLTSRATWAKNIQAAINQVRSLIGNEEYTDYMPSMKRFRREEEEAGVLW

[4] = molecular target: T3, RNA-binding protein pos-1 (Caenorhabditis elegans, UniProt G5EF15); test: disruptors of C. elegans POS-1 RNA interaction – biochemical, fluorescence polarization, dose response (AID 1964);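 note: purified POS-1 fused to maltose binding protein made in E. coli; potency of compounds blocking POS-1 binding to fluorescent RNA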
T3 sequence (G5EF15 whole entry): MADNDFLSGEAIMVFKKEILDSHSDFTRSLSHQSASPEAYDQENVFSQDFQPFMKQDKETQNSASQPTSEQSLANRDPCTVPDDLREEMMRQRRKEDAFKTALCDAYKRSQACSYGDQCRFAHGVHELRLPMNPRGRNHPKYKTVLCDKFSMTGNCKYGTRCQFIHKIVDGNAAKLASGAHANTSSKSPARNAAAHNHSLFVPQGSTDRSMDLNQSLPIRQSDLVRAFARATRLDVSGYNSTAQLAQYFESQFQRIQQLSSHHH

[5] = molecular target: Intestinal-type alkaline phosphatase (Homo sapiens, UniProt P09923); test: inhibition of human intestinal alkaline phosphatase – biochemical, dose response (AID 488876); assay type: functional
Intestinal-type alkaline phosphatase (Homo sapiens, UniProt P09923), sequence (P09923 whole entry): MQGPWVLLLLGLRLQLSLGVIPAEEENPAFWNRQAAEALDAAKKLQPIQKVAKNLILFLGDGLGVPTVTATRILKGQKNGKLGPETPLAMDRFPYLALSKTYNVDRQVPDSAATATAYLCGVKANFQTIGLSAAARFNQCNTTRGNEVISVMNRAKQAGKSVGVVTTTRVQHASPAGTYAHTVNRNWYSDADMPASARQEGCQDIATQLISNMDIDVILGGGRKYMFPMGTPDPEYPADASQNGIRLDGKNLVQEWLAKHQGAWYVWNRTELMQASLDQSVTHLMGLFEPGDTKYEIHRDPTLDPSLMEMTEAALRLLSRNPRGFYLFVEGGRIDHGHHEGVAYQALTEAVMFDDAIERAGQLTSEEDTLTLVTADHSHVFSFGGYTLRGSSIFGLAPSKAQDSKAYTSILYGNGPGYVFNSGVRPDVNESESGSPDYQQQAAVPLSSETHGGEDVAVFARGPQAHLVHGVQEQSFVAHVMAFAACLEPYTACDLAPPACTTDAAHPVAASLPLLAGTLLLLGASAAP

[6] = molecular target: T4, Alkaline phosphatase, tissue-nonspecific isozyme (Homo sapiens, UniProt P05186); test: TNAP enzyme inhibition by screening hits, dose response, selectivity assay for mouse IAP inhibitor project, biochemical, human TNAP, uHTS hits (AID 488906); assay type: functional
T4 sequence (P05186 whole entry): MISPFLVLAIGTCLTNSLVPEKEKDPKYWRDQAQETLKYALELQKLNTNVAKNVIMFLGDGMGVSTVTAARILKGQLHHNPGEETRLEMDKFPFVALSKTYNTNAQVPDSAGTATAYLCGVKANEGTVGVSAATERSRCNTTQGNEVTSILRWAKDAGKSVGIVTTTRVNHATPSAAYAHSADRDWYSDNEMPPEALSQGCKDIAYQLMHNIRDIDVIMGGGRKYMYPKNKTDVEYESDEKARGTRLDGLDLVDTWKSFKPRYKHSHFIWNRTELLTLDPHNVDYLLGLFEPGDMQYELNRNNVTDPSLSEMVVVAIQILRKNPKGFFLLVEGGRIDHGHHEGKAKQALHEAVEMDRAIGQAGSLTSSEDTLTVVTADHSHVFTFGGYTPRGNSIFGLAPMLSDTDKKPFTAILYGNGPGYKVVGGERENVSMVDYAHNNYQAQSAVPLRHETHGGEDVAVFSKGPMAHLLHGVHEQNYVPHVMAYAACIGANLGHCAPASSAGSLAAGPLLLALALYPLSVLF

Tumor necrosis factor = Tumor necrosis factor (Homo sapiens, UniProt P01375); test: analog potency on TNFa NF-kB signaling – cell-based, revised, SAR follow-up (AID 2337); assay type: functional
Tumor necrosis factor, sequence (P01375 whole entry, the tested form may be a part): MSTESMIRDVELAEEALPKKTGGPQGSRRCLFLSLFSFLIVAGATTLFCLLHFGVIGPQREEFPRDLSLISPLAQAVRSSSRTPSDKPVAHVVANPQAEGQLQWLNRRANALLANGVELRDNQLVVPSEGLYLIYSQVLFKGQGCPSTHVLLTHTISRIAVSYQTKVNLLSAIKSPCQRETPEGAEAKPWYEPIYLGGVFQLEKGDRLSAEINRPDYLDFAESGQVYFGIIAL

[7] = molecular target: T5, Nucleotide-binding oligomerization domain-containing protein 1 (Homo sapiens, UniProt Q9Y239); test: blockers of NOD1 pathway activity – revised, SAR follow-up (AID 2333); assay type: functional
T5 sequence (Q9Y239 whole entry): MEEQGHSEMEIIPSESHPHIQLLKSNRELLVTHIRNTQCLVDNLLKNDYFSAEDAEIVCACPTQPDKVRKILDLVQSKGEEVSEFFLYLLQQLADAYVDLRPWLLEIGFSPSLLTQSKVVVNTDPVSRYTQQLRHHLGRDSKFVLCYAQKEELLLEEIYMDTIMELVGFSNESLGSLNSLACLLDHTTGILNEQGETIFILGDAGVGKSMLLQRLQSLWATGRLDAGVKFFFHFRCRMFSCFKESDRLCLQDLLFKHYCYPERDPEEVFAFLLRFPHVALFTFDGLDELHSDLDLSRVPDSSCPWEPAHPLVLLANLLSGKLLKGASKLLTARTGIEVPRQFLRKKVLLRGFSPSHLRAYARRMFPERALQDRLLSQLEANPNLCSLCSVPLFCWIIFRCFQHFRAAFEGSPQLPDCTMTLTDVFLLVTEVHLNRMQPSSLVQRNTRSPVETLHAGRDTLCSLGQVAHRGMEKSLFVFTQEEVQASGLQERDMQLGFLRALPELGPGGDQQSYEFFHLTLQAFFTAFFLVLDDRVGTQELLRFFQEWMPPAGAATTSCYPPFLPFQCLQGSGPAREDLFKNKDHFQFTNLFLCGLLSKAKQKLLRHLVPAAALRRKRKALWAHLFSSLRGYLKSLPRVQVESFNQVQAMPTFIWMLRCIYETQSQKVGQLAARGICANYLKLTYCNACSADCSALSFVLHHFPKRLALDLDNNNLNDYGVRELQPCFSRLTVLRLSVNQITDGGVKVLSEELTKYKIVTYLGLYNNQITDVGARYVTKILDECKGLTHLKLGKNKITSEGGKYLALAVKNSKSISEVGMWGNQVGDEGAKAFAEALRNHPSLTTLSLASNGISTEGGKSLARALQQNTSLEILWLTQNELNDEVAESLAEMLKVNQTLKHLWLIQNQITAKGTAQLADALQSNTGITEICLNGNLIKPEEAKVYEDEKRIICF

HEK293 = test: cells; conditions: Homo sapiens;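 note: cells exposed to compound for 14 hours overnight before viability readout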
[8] = molecular target: FAD-linked sulfhydryl oxidase ALR (Homo sapiens, UniProt P55789); test: ALR-catalysed DTT oxidation blockers – biochemical, H2O2 detection, luminescence, cherry-pick, dose response (AID 493248)
FAD-linked sulfhydryl oxidase ALR, sequence (P55789 whole entry, the tested form may be a part): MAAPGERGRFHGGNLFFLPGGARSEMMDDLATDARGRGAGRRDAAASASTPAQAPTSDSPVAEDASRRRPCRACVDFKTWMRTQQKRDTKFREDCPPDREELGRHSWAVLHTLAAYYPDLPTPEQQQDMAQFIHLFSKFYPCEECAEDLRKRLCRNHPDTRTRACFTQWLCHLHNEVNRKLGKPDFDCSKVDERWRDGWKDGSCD

[9] = molecular target: T6, Carboxy-terminal domain RNA polymerase II polypeptide A small phosphatase 1 (Homo sapiens, UniProt Q9GZU7); test: CTDSP1 inhibitors, concentration-response, biochemical, absorbance readout, ultra-high-throughput screen actives (AID 540297); assay type: functional
T6 sequence (Q9GZU7 whole entry): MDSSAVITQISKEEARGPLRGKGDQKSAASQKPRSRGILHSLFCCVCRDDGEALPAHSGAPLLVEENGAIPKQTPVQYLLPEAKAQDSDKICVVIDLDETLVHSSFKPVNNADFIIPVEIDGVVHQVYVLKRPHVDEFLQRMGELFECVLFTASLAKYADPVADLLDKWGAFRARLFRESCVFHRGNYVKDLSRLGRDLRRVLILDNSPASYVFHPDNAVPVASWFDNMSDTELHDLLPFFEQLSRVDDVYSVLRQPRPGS

Procathepsin L = Procathepsin L (Homo sapiens, UniProt P07711)
Procathepsin L, sequence (P07711 whole entry): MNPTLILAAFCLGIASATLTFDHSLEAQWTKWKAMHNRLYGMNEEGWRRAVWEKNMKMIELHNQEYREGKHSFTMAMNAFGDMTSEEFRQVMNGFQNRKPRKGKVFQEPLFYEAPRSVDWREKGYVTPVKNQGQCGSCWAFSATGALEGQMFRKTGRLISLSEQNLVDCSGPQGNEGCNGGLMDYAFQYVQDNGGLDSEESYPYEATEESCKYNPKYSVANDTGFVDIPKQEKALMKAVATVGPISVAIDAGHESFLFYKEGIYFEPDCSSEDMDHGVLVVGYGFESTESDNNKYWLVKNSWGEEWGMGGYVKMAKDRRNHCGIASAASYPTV

Large T antigen = Large T antigen (Simian virus 40, UniProt P03070); assay type: functional, Betapolyomavirus macacae;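 note: Confirmatory-stage PubChem screen for compounds that inhibit SV40 T antigen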
Large T antigen, sequence (P03070 whole entry): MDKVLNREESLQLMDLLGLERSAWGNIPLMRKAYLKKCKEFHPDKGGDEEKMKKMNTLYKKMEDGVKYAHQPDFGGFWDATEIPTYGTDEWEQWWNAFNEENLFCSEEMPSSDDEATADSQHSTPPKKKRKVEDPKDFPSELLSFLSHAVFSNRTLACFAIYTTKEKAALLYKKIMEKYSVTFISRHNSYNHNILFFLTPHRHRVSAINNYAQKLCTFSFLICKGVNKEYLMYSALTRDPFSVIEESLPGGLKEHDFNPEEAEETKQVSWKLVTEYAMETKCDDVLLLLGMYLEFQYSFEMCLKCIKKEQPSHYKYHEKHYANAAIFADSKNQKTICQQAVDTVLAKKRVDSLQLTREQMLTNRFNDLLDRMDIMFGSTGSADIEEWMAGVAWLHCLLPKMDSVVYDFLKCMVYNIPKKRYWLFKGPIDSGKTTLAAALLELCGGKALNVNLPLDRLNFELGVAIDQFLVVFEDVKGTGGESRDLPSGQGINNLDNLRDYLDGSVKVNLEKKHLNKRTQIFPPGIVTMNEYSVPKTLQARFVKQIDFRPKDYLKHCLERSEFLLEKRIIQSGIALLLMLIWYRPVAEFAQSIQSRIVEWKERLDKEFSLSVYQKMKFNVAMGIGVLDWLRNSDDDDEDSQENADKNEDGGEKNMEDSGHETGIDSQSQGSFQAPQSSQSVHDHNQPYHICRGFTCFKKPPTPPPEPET

Aspartyl aminopeptidase = molecular target: T7, Aspartyl aminopeptidase (Plasmodium falciparum 3D7, UniProt Q8I2J3)
T7 sequence (Q8I2J3 whole entry): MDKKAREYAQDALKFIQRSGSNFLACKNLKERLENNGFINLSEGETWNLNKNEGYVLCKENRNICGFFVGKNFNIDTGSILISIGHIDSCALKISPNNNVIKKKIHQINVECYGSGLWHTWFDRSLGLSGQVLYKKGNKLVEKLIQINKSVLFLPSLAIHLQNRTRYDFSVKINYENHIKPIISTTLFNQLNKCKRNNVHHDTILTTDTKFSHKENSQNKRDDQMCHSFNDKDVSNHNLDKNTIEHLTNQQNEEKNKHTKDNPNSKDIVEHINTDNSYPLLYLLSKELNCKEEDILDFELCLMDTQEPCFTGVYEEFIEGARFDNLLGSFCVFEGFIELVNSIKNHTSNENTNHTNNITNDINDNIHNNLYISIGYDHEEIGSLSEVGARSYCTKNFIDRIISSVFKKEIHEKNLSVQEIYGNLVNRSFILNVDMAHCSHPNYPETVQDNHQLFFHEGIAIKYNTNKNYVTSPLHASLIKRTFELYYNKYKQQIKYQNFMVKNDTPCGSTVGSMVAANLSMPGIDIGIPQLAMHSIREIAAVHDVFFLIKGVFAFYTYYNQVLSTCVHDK

Intestinal-type alkaline phosphatase (Mus musculus, UniProt P24822), sequence (P24822 whole entry): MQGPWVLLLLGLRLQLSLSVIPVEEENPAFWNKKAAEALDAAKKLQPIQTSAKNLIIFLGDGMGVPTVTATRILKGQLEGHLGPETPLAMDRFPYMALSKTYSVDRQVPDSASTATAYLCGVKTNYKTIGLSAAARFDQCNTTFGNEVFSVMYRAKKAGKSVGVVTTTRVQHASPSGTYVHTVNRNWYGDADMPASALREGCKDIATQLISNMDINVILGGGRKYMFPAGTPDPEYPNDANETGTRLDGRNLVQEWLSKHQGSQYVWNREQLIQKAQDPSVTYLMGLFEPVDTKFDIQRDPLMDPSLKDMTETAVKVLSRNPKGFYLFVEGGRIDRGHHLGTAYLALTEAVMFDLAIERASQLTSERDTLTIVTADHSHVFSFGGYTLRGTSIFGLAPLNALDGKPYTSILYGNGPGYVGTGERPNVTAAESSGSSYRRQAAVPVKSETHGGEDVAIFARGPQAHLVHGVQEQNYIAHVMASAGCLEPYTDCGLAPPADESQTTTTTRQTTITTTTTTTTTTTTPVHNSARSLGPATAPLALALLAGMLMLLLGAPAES

| IC50 [1] | EC50 [2] | EC50 [3] | IC50 (Genome polyprotein) | EC50 [4] | IC50 [5] | IC50 [6] | AC50 [8] | IC50 [9] | IC50 (Procathepsin L) | IC50 (Large T antigen) | IC50 (Aspartyl aminopeptidase) | SMILES | IC50 (Tumor necrosis factor) | IC50 [7] | IC50 (HEK293) |
| --- | --- | --- | --- | --- | --- | --- | --- | --- | --- | --- | --- | --- | --- | --- | --- |
| 0.206 µM (active) | > 260 µM (inactive) | 0.294 µM (inconclusive) | 61.5 µM (active) | 14.3 µM (active) | > 100 µM (inactive) | 0.211 µM (active) |  |  |  |  |  | Cc1ccc(Cl)c2c(C3=NC(=S)NC3=O)c(O)[nH]c12 |  |  |  |
|  |  |  |  |  |  |  |  |  |  |  |  | CC1Cc2cc(S(=O)(=O)N3CCN(c4ccccc4)CC3)ccc2N1C(=O)C1CC1 (stereo not drawn) | 15.3 µM (active) | > 20 µM (inactive) | > 20 µM (inactive) |
| 6.02 µM (active) |  |  |  |  | > 100 µM (inactive) | > 100 µM (inactive) |  |  |  |  |  | COc1ccc(C2CC(c3ccccc3Cl)=NN2c2ccc(S(N)(=O)=O)cc2)cc1 (stereo not drawn) |  |  |  |
| 1.04 µM (active) |  | 179 µM (active) |  | 250 µM (active) | 4.34 µM (active) | 1.12 µM (active) | 1.05 µM (active) | 36.1 µM (active) | > 59.6 µM (not active) | 4.72 µM (active) | 0.67 µM (active) | O=[N+]([O-])c1c(O)nc(/C=C\c2ccc(O)c(O)c2)nc1O |  |  |  |
